How the values were obtained:
[1] = test system: Kunming male mice; test: acetic acid writhing test on mice; format: in vivo, mouse; conditions: for Writhe starting time / Number of writhing times: Table 3; for Number of writhing times: within 30 min
[2] = test system: SD rats; test: carrageenan-induced rat paw swelling test; format: in vivo
Protocol: Eighteen healthy adult male mice were randomly divided into 3 groups. FAPM (100 mg/kg) was administered intraperitoneally once a day for 3 consecutive days. The control group was injected with the same amount of solvent, and the positive drug dexamethasone (4 mg/kg) was administered intragastrically once a day for 3 consecutive days. Thirty minutes after the last administration, 0.1 mL of 1% carrageenan was injected subcutaneously into the right hind paw of each rat, and the plantar thickness was measured before injection and 1, 2 and 3 hours after injection. Three hours later, the rats were sacrificed by dislocation. The feet were cut off from the knee joints and weighed on a precision balance. The swelling degree of the paw (right foot weight-left foot weight) was calculated.

[3] = test system: Mouse mononuclear macrophage RAW 264.7; test: nitric oxide production by LPS-stimulated macrophages (Griess assay); format: cell-based; conditions: LPS 1 μg/mL, 24 h
[4] = test system: rat uterine smooth muscle; test: contraction of rat uterine smooth muscle induced by acetylcholine; format: cell-based; conditions: acetylcholine (0.25 μM)
Protocol: (§1) Female healthy Wistar rats weighing 230-270 g were used in the experiment. At 2 days before the experiment, Diethylstilbestrol suspension was injected intraperitoneally once at 0.1 mg/kg, resulting in artificial estrus. The rats were sacrificed by cervical dislocation, and the uterus was removed by laparotomy and immediately placed in a glass plate containing Tyrode's solution. […] The materials stood for 20-30 minutes, liquid was changed 2-3 times, then the uterus was given a load of 1 g and kept for 30-60 minutes until the uterus had regular contraction waves, 40 mM KCL solution was provided for 10 minutes, and the function of the uterine muscle strips was evaluated. Then the muscle strips were relaxed and washed 2-3 times with Tyrode's solution, then let stand for 30 minutes; after standing, the uterine muscle strips were given a load of 1 g and kept for 30-60 minutes, and the administration and the observation were carried out after the uterine muscle strips contracted stably (i.e. regular contraction waveforms appear in a microcomputer display screen), the changes of relevant data such as contraction tension, amplitude and area under the contraction curve of the uterine smooth muscle strips were recorded, and the drug given was evaluated. […]

[5] = test system: rat uterine smooth muscle; test: contraction of isolated rat uterine smooth muscle strips induced by PGF2α; format: cell-based; conditions: PGF2α (450 nM); for IC50: area under the contraction curve 10 minutes after drug, read-out: IC50, inhibition of uterine smooth muscle contraction
Protocol: Female healthy Wistar rats weighing 230-270 g were used in the experiment. At 2 days before the experiment, Diethylstilbestrol suspension was injected intraperitoneally once at 0.1 mg/kg, resulting in artificial estrus. The rats were sacrificed by cervical dislocation, and the uterus was removed by laparotomy and immediately placed in a glass plate containing Tyrode's solution. Connective and adipose tissues attached to the uterine wall were carefully peeled off, the uterus was cut open along the mesangial line and laid flat on the bottom of the glass plate, then one side of the uterus was divided into left and right uterine muscle strips by using a surgical blade along the uterine contraction band running along smooth muscle, the two ends of the uterine muscle strip on one side were ligated with wires respectively, and then transferred into a nutrient tube which was aerated with oxygen and filled with 5 ml of Tyrode's solution and preheated to 37.2±0.5° C., with a lower end fixed and an upper end connected with a tension sensor. The materials stood for 20-30 minutes, liquid was changed 2-3 times, then the uterus was given a load of 1 g and kept for 30-60 minutes until the uterus had regular contraction waves, 40 mM KCL solution was provided for 10 minutes, and the function of the uterine muscle strips was evaluated. Then the muscle strips were relaxed and washed 2-3 times with Tyrode's solution, then let stand for 30 minutes; after standing, the uterine muscle strips were given a load of 1 g and kept for 30-60 minutes, and the administration and the observation were carried out after the uterine muscle strips contracted stably (i.e. regular contraction waveforms appear in a microcomputer display screen), the changes of relevant data such as contraction tension, amplitude and area under the contraction curve of the uterine smooth muscle strips were recorded, and the drug given was evaluated. During the experiment, the working temperature of the Tyrode's solution was kept at 37.2±0.5° C., and oxygen was continuously aerated into the nutrient tube with 1-2 bubbles per second. A cumulative dosing method was adopted, and 5 μl was administered each time, from low concentration to high concentration. A final drug concentration refers to the concentration of the drug dissolved in 5 ml Tyrode's solution in a […] tube.
Fluacrypyrim (FAPM), the first strobilurin acaricide developed by BASF SE and Nippon Soda Co., Ltd., is a Qo site inhibitor of the mitochondrial cytochrome bc1 complex. […] The area under the smooth muscle contraction curve was calculated before drug intervention and 10 minutes after different doses of drug intervention respectively. A drug dose-effect curve was plotted by taking the area under the smooth muscle contraction curve caused by PGF2α as 100%, to calculate the median effective dose (IC50 value) of the drug for inhibiting uterine smooth muscle contraction.

[6] = test system: mice; test: xylene-induced mouse ear swelling test; format: in vivo
Protocol: Fifty healthy adult male mice were randomly divided into 5 groups. […] […] One hour after administration, 20 μL of xylene was evenly applied to both sides of the right ear of mouse, and xylene was not applied to the left ear as self control. One hour later, the two ears were cut off, and two ear pieces were removed from the same parts of the two ears with a 6 mm hole punch. The two ear pieces were weighed on a precision balance, and the swelling degree (right ear piece weight-left ear piece weight) and swelling inhibition rate (right ear piece weight-left ear piece weight)/left ear piece weight×100%) were calculated.

[7] = test system: rat uterine smooth muscle; test: contraction of rat uterine smooth muscle induced by potassium chloride; format: cell-based; conditions: potassium chloride (16 mM)
Protocol: as §1

[8] = test system: rat uterine smooth muscle; test: contraction of rat uterine smooth muscle induced by oxytocin; format: cell-based; conditions: oxytocin (1 mU/ml)
Protocol: as §1

[9] = test system: Kunming female mice; test: PGF2α-induced dysmenorrhea model in mice (diethylstilbestrol sensitization); format: in vivo, mouse; conditions: for Number of writhing times: within 30 min
Protocol: A mouse dysmenorrhea model was established with reference to Yang L., Cao Z., Yu B. & Chai C. An in vivo mouse model of primary dysmenorrhea. Exp Anim. 2015, August 64, 295-303. Adult healthy Kunming female mice were randomly grouped, 10 mice in each group. Experimental mice were intragastrically given diethylstilbestrol 0.2 mg daily for 12 days. Different kinds and dosages of the inhibitors of the cytochrome bc1 complex were given intraperitoneally or intragastrically 30 min after the last administration. Indometacin (50 mg/kg) was injected intraperitoneally as positive control, PGF2α (1.3 mg/kg) or oxytocin (20 U/kg) was injected intraperitoneally 1 h later, and the writhe starting time (reaction latency) and the number of writhing times within 30 min were observed and recorded.

[10] = Table 7, 100 mg/Kg intraperitoneal
[11] = Table 7, 200 mg/Kg intraperitoneal

Question: With `CO/C=C(/C(=O)OC)c1ccccc1COc1cc(C(F)(F)F)nc(OC(C)C)n1` [FAPM, fluacrypyrim] as the compound, how does the “curative effect compared with indomethacin” value ([1]; 100 mg/Kg versus indomethacin 50 mg/Kg) read?
Answer: Its value is “equivalent to indomethacin at 50 mg/Kg”.

Question: What about the “writhe starting time (reaction latency) compared with control group” value ([1]; FAPM and trifloxystrobin intraperitoneal, azoxystrobin intragastric) of the same compound?
Answer: The value was “significantly prolonged”.

Question: And the Writhe starting time ([1]; 50 mg/Kg intraperitoneal)?
Answer: The Writhe starting time was 3.4 ± 1.1 min.

Question: What about the “Number of writhing times” value ([1]; 50 mg/Kg intraperitoneal, 1 hour before acetic acid) of the same compound?
Answer: The value was 25.3 ± 4.7.

Question: What about the Writhe starting time ([1]; 100 mg/Kg intraperitoneal) of the same compound?
Answer: Its Writhe starting time is 4.6 ± 1.5 min.

Question: And the “Number of writhing times” value ([1]; 100 mg/Kg intraperitoneal)?
Answer: The value was 17.6 ± 3.5.

Question: And the Writhe starting time ([1]; 200 mg/Kg intraperitoneal)?
Answer: Its Writhe starting time is 11.9 ± 2.6 min.

Question: And the “Number of writhing times” value ([1]; 200 mg/Kg intraperitoneal)?
Answer: Its value is 2.4 ± 2.2.

Question: What about the “Paw swelling thickness 1 h” value ([2]; 100 mg/Kg intraperitoneal once a day for 3 days, 1 h after carrageenan) of the same compound?
Answer: The value was 5.72 ± 0.29 mm.

Question: And the “Paw swelling thickness 2 h” value ([2]; 100 mg/Kg intraperitoneal once a day for 3 days, 2 h after carrageenan)?
Answer: Its value is 5.92 ± 0.19 mm.

Question: And the “Paw swelling thickness 3 h” value ([2]; 100 mg/Kg intraperitoneal once a day for 3 days, 3 h after carrageenan)?
Answer: Its value is 6.24 ± 0.20 mm.

Question: And the “Paw swelling (right foot weight-left foot weight)” value ([2]; 100 mg/Kg intraperitoneal once a day for 3 days, 3 hours after carrageenan)?
Answer: The value was 0.834 ± 0.32 g.

Question: What about the “carrageenan-induced rat paw swelling” value ([2]; 100 mg/kg intraperitoneal) of the same compound?
Answer: The value was “significantly inhibited”.

Question: And the Maximum inhibition rate ([3]; in %)?
Answer: Its Maximum inhibition rate is 80%.

Question: What about the IC50 ([3]; Mus musculus, RAW264.7, read-out: IC50, NO production) of the same compound?
Answer: Its IC50 is 3.8 µM.

Question: And the IC50 [4]?
Answer: Its IC50 is 1.36 ± 0.04 µM.

Question: What about the “inhibitory effect on PGF2α-induced contraction” value ([5]; amplitude and frequency) of the same compound?
Answer: The value was “in a dose-dependent manner”.

Question: What about the IC50 [5] of the same compound?
Answer: The IC50 was 1.69 ± 0.16 µM.

Question: What about the IC50 ([5]; Rattus norvegicus, 10 min) of the same compound?
Answer: Its IC50 is 1.84 ± 0.08 µM.

Question: What about the Ear swelling ([6]; 100 mg/Kg intraperitoneal, 1 hour after xylene) of the same compound?
Answer: Its Ear swelling is 7.83 ± 3.85 mg.

Question: And the “xylene-induced mouse ear swelling” value ([6]; 100 mg/kg intraperitoneal)?
Answer: Its value is “significantly inhibited”.

Question: And the IC50 [7]?
Answer: The IC50 was 1.21 ± 0.07 µM.

Question: What about the IC50 [8] of the same compound?
Answer: Its IC50 is 1.6 ± 0.08 µM.

Question: And the “curative effect compared with indomethacin” value ([9]; 50 mg/Kg versus indomethacin 50 mg/Kg)?
Answer: Its value is “equivalent to indomethacin at 50 mg/Kg”.

Question: And the “Writhe starting time” value ([9]; 200 mg/Kg intraperitoneal)?
Answer: The value was “significantly prolonged”.

Question: What about the “effect on number of writhing times” value ([9]; FAPM intraperitoneal, azoxystrobin intragastric, 50, 100 and 200 mg/Kg one hour before) of the same compound?
Answer: Its value is “in a dose-dependent manner”.

Question: And the Writhe starting time ([9]; Table 7, 50 mg/Kg intraperitoneal)?
Answer: The Writhe starting time was 1.24 ± 0.66 min.

Question: What about the “Number of writhing times” value ([9]; Table 7, 50 mg/Kg intraperitoneal, 1 h before PGF2α (1.3 mg/kg)) of the same compound?
Answer: Its value is 18.3 ± 3.3.

Question: What about the Writhe starting time [9, 10] of the same compound?
Answer: Its Writhe starting time is 1.43 ± 0.73 min.

Question: And the “Number of writhing times” value [9, 10]?
Answer: Its value is 12.5 ± 1.7.

Question: What about the Writhe starting time [9, 11] of the same compound?
Answer: The Writhe starting time was 2.15 ± 0.34 min.

Question: What about the “Number of writhing times” value [9, 11] of the same compound?
Answer: The value was 5.8 ± 1.2.

Source: patent publication US11058690B2, “Use of cytochrome bc1 complex inhibitor in preparing pharmaceutical composition” (BEIJING WEILANZHIYUAN MEDICAL TECHNOLOGY CO., LTD., priority 2017, dated 2021)
